From ChEMBL document CHEMBL3217667, “Extended side chain analogues of 8-aminoquinolines: Synthesis and evaluation of antiprotozoal, antimicrobial, -hematin inhibition, and cytotoxic activities” (Medchemcomm, 2011)
Calls of active or inactive are those of the source. No cut-off for these calls is given here.

What was measured:
[1] = Selectivity index, ratio of IC50 for African green monkey Vero cells to IC50 for chloroquine-sensitive Plasmodium falciparum D6; assay type: toxicity, cell-based; conditions: read-out: Ratio IC50
[2] = test system: Nakaseomyces glabratus; experiment: Antifungal activity against Candida glabrata by broth microdilution assay; assay type: functional, organism-based
[3] = Inhibition of beta-hematin formation after 16 hrs; assay type: physicochemical
[4] = test system: KB; experiment: Cytotoxicity against human KB cells by neutral red uptake assay; assay type: cell-based
[5] = test system: Candida albicans; experiment: Antifungal activity against Candida albicans by broth microdilution assay; assay type: functional, organism-based
[6] = test system: Escherichia coli; experiment: Antibacterial activity against Escherichia coli; assay type: functional, organism-based
[7] = test system: BT-549; experiment: Cytotoxicity against human BT549 cells by neutral red uptake assay; assay type: cell-based
[8] = test system: Staphylococcus aureus; experiment: Antibacterial activity against Staphylococcus aureus; assay type: functional, organism-based
[9] = test system: Plasmodium berghei; experiment: Antimalarial activity against Plasmodium berghei infected in mouse assessed as reduction in parasitemia at 100 mg/kg/day, po for 4 days measured up to day 14; assay type: functional
[10] = test system: SK-MEL; experiment: Cytotoxicity against human SK-MEL cells by neutral red uptake assay; assay type: cell-based
[11] = test system: Leishmania donovani; experiment: Antileishmanial activity against Leishmania donovani promastigotes by Alamar Blue assay; assay type: functional, organism-based
[12] = test system: Aspergillus fumigatus; experiment: Antifungal activity against Aspergillus fumigatus by broth microdilution assay; assay type: functional, organism-based
[13] = test system: Staphylococcus aureus; experiment: Antibacterial activity against methicillin-resistant Staphylococcus aureus; assay type: functional, organism-based
[14] = Selectivity index, ratio of IC50 for African green monkey Vero cells to IC50 for chloroquine-resistant Plasmodium falciparum W2; assay type: toxicity, cell-based; conditions: read-out: Ratio IC50
[15] = test system: Cryptococcus neoformans; experiment: Antifungal activity against Cryptococcus neoformans by broth microdilution assay; assay type: functional, organism-based
[16] = test system: Cryptococcus neoformans; experiment: Antifungal activity against Cryptococcus neoformans up to 20 ug/ml by broth microdilution assay; assay type: functional, organism-based
[17] = test system: Mycobacterium intracellulare; experiment: Antibacterial activity against Mycobacterium intracellulare up to 20 ug/ml; assay type: functional, organism-based
[18] = test system: Plasmodium falciparum; experiment: Antimalarial activity against chloroquine-sensitive Plasmodium falciparum D6 by lactate dehydrogenase assay; assay type: functional, organism-based; conditions: Plasmodium falciparum, D6; read-out: IC50
[19] = test system: SK-OV-3; experiment: Cytotoxicity against human SKOV3 cells by neutral red uptake assay; assay type: cell-based
[20] = test system: Pseudomonas aeruginosa; experiment: Antibacterial activity against Pseudomonas aeruginosa; assay type: functional, organism-based
[21] = test system: Plasmodium falciparum; experiment: Antimalarial activity against chloroquine-resistant Plasmodium falciparum W2 by lactate dehydrogenase assay; assay type: functional, organism-based; conditions: Plasmodium falciparum, W2; read-out: IC50
[22] = test system: Mycobacterium intracellulare; experiment: Antibacterial activity against Mycobacterium intracellulare; assay type: functional, organism-based
[23] = test system: Vero; experiment: Cytotoxicity against African green monkey Vero cells by neutral red uptake assay; assay type: cell-based; conditions: Chlorocebus sabaeus
[24] = test system: Pichia kudriavzevii; experiment: Antifungal activity against Candida krusei by broth microdilution assay; assay type: functional, organism-based
[25] = test system: LLC-PK1; experiment: Cytotoxicity against pig LLC-PK1 cells by neutral red uptake assay; assay type: cell-based; conditions: Sus scrofa
[26] = test system: Plasmodium berghei; experiment: Antimalarial activity against Plasmodium berghei infected in mouse assessed as reduction in parasitemia at 10 mg/kg/day, po for 4 days measured up to day 7; assay type: functional, organism-based
[27] = test system: Plasmodium berghei; experiment: Antimalarial activity against Plasmodium berghei infected in mouse assessed as reduction in parasitemia at 25 mg/kg/day, po for 4 days measured up to day 60 relative to control; assay type: functional; set-up: scale not given: the % may be the effect or the level left
[28] = test system: Plasmodium berghei; experiment: Antimalarial activity against Plasmodium berghei infected in mouse assessed as reduction in parasitemia at 50 mg/kg/day, po for 4 days measured up to day 60 relative to control; assay type: functional; set-up: scale not given: the % may be the effect or the level left
[29] = test system: Plasmodium berghei; experiment: Antimalarial activity against Plasmodium berghei infected in mouse assessed as reduction in parasitemia at 100 mg/kg/day, po for 4 days measured up to day 60 relative to control; assay type: functional; set-up: scale not given: the % may be the effect or the level left
[30] = test system: Staphylococcus aureus; experiment: Antibacterial activity against methicillin-resistant Staphylococcus aureus up to 20 ug/ml; assay type: functional, organism-based
[31] = test system: Staphylococcus aureus; experiment: Antibacterial activity against Staphylococcus aureus up to 20 ug/ml; assay type: functional, organism-based
[32] = test system: Plasma; experiment: Half life in human plasma; assay type: ADME, cell-free

Row | SMILES | selectivity ratio [1] | Activity [2] | IC50 [3] | IC50 [4] | Activity [5] | Activity [6] | IC50 [7] | Activity [9] | IC50 [10] | IC50 [11] | IC90 [11] | Activity [12] | selectivity ratio [14] | Activity [17] | IC50 [18] | IC50 [19] | Activity [20] | IC50 [21] | IC50 [23] | Activity [24] | other results
1 | CCCCOc1c(OC)cc(NC(C)CCCNC(C)CCCN)c2nccc(CC)c12.Cl (configuration not stated) | > 39.6 | inactive | 10.2 µM | > 23.8 µg/mL | inactive | inactive | > 23.8 µg/mL | inactive | > 23.8 µg/mL | 3.5 µg/mL | 7 µg/mL | inactive | > 64.2 | inactive | 0.6 µg/mL | > 23.8 µg/mL | inactive | 0.37 µg/mL | > 23.8 µg/mL | inactive | IC50 [8]: 13.7 µg/mL; MBC [8]: 20 µg/mL; MIC [8]: 20 µg/mL; IC50 [13]: 12.5 µg/mL; MBC [13]: 20 µg/mL; MIC [13]: 20 µg/mL; IC50 [15]: 7.9 µg/mL; MIC [15]: 20 µg/mL; Activity [16]: inactive; IC50 [22]: > 20 µg/mL; IC50 [25]: > 23.8 µg/mL
2 | COc1cc(NC(C)CCCNC(C)CCCNC(C)CCCN)c2ncccc2c1.Cl (configuration not stated) | > 9.1 | inactive | 75 µM | > 23.8 µg/mL | inactive | inactive | > 23.8 µg/mL | 100% | > 23.8 µg/mL | 4.2 µg/mL | 40 µg/mL | inactive | > 15.8 | inactive | 2.6 µg/mL | > 23.8 µg/mL | inactive | 1.5 µg/mL | > 23.8 µg/mL | inactive | Activity [26]: Active; Activity [27]: 100%; Activity [28]: 100%; Activity [16]: inactive; Activity [29]: 100%; Activity [30]: inactive; IC50 [25]: > 23.8 µg/mL
3 | CCCCCCCCOc1c(OC)cc(NC(C)CCCNC(C)CCCN)c2nccc(CC)c12.Cl (configuration not stated) | > 25.8 | inactive | 15.7 µM | > 23.8 µg/mL | inactive | inactive | > 23.8 µg/mL | inactive | > 23.8 µg/mL | 17 µg/mL | 32 µg/mL | inactive | > 29 | inactive | 0.92 µg/mL | > 23.8 µg/mL | inactive | 0.82 µg/mL | > 23.8 µg/mL | inactive | IC50 [8]: 14.5 µg/mL; Activity [31]: inactive; IC50 [13]: 10.4 µg/mL; MBC [13]: 20 µg/mL; MIC [13]: 20 µg/mL; IC50 [15]: 8.5 µg/mL; MFC [15]: 20 µg/mL; MIC [15]: 20 µg/mL; IC50 [22]: > 20 µg/mL; IC50 [25]: > 23.8 µg/mL
4 | COc1cc(NC(C)CCCNC(C)CCCN)c2ncccc2c1.Cl (configuration not stated) | > 41.7 | inactive | 18.5 µM | > 23.8 µg/mL | inactive | inactive | > 23.8 µg/mL | 100% | > 23.8 µg/mL | 32 µg/mL | inactive | inactive | > 29.7 | inactive | 0.57 µg/mL | > 23.8 µg/mL | inactive | 0.8 µg/mL | > 23.8 µg/mL | inactive | Activity [26]: Active; Activity [27]: 100%; Activity [28]: 100%; Activity [16]: inactive; Activity [29]: 100%; IC50 [22]: 10 µg/mL; Activity [30]: inactive; IC50 [25]: > 23.8 µg/mL
5 | COc1cc(NC(C)CCCNC(C)CCCNC(C)CCCNC(C)CCCN)c2ncccc2c1.Cl (configuration not stated) | > 10.3 | inactive | 75 µM | > 23.8 µg/mL | inactive | inactive | > 23.8 µg/mL | 100% | > 23.8 µg/mL | 5 µg/mL | 40 µg/mL | inactive | > 18.3 | inactive | 2.3 µg/mL | > 23.8 µg/mL | inactive | 1.3 µg/mL | > 23.8 µg/mL | inactive | Activity [26]: Active; Activity [27]: 100%; Activity [28]: 100%; Activity [16]: inactive; Activity [29]: 100%; Activity [30]: inactive; IC50 [25]: > 23.8 µg/mL
6 | COc1cc(NC(C)CCCN)c2ncccc2c1 (configuration not stated) [PRIMAQUINE] | – | – | > 1000 µM | – | – | – | – | – | – | – | inactive | – | – | – | – | – | – | – | > 23.8 µg/mL | – | t1/2 [32]: 4 h
